Source: patent publication US9963467B2, “Boronic acid derivatives and therapeutic uses thereof” (Rempex Pharmaceuticals, Inc., priority 2014, dated 2018)

Tests used:
Format in all cases: in vitro ADME
[1] = Serum stability of prodrugs, human serum; details: human serum; prodrug; theoretical initial conc. 20 ug/mL
Protocol: (§1) Prodrug strategy is one of the ways to achieve or increase oral bioavailability for therapeutic drugs. […] After a prodrug molecule is absorbed into systemic circulation, it should be hydrolyzed in the blood in order to release the active form. Hydrolysis of several prodrugs by rat and human serum were evaluated.
(§2) For all stability experiments the test compounds were treated with rat or human serum in Eppendorf tubes. Typically, 992 μl of serum was prewarmed at 37 degrees for 2 minutes and then 8 μl of a compound (at 5 mg/ml, 125×) was added to it to get a final concentration of […] and immediately mixed. Alternatively, serum stability might be tested at 1 mg/ml. […] After vortexing for 30 seconds, the tube was centrifuged in a microcentrifuge for 10 minutes at 15K rpm. Next, 100 μl of the supernatant was combined with 600 μl of water and injected on LC-MS using 0.1% formic acid in water for mobile phase A and 0.1% formic acid in methanol for mobile phase B on an ACE 5 C18 2.1×100 mm column with a 10 μL injection. The flow rate and gradient were adjusted as needed to give the desired resolution and run time. The pH of the mobile phase was adjusted if needed to improve the chromatography.
(§3) The time course of both the disappearance of a prodrug and the appearance of the active form of that prodrug is presented in Table 6 and Table 7. The active metabolites for all of the listed prodrugs are corresponding parent drugs

[2] = Serum stability of prodrugs, rat serum; details: theoretical initial conc. 20 ug/mL; for Measured Initial Conc. in Serum: 37 degrees; for Conc. at t = 1 hr / Conc. at t = 3 hr: prodrug
Protocol: as §1, §2, §3

[3] = Serum stability of prodrugs, human serum; details: theoretical initial conc. 20 ug/mL; for Measured Initial Conc. in Serum: 37 degrees; for Conc. at t = 1 hr: prodrug

SMILES: CCOC(=O)OCOC(=O)c1c(F)ccc2c1OB(O)[C@@H](NC(=O)CSC)C2 [Compound 19, (R)-(ethoxycarbonyloxy)methyl 7-fluoro-2-hydroxy-3-(2-(methylthio)acetamido)-3,4-dihydro-2H-benzo[e][1,2]oxaborinine-8-carboxylate]
- Conc. at t = 3 hr [1]: 1.17 µg/mL
- Measured Initial Conc. in Serum [2]: 17.4 µg/mL
- Conc. at t = 1 hr [2]: 0 µg/mL
- Conc. at t = 3 hr [2]: 0 µg/mL
- Measured Initial Conc. in Serum [3]: 20.3 µg/mL
- Conc. at t = 1 hr [3]: 6.11 µg/mL

SMILES: COc1ccc2c(c1C(=O)OCOC(=O)OC(C)C)OB(O)[C@@H](NC(=O)CSC)C2 [Compound 40, isopropoxycarbonyloxymethyl(3R)-2-hydroxy-7-methoxy-3-[(2-methylsulfanylacetyl)amino]-3,4-dihydro-1,2-benzoxaborinine-8-carboxylate]
- Conc. at t = 3 hr [1]: 19 µg/mL
- Measured Initial Conc. in Serum [2]: 25.9 µg/mL
- Conc. at t = 1 hr [2]: 2.71 µg/mL
- Conc. at t = 3 hr [2]: 0.74 µg/mL
- Measured Initial Conc. in Serum [3]: 24.8 µg/mL
- Conc. at t = 1 hr [3]: 23.6 µg/mL

SMILES: CSCC(=O)N[C@H]1Cc2cc(Cl)c(F)c(C(=O)OCOC(=O)C(C)C)c2OB1O [Compound 46, 2-methylpropanoyloxymethyl(3R)-6-chloro-7-fluoro-2-hydroxy-3-[(2-methylsulfanylacetyl)amino]-3,4-dihydro-1,2-benzoxaborinine-8-carboxylate]
- Conc. at t = 3 hr [1]: 1.01 µg/mL
- Measured Initial Conc. in Serum [2]: 18.7 µg/mL
- Conc. at t = 1 hr [2]: 8.29 µg/mL
- Conc. at t = 3 hr [2]: 0.41 µg/mL
- Measured Initial Conc. in Serum [3]: 19.1 µg/mL
- Conc. at t = 1 hr [3]: 6.22 µg/mL

SMILES: CSCC(=O)N[C@H]1Cc2ccc(F)c(C(=O)OCOC(=O)C(C)C)c2OB1O [Compound 17, (R)-isobutyryloxymethyl 7-fluoro-2-hydroxy-3-(2-(methylthio)acetamido)-3,4-dihydro-2H-benzo[e][1,2]oxaborinine-8-carboxylate]
- Conc. at t = 3 hr [1]: 0.16 µg/mL
- Measured Initial Conc. in Serum [2]: 9.22 µg/mL
- Conc. at t = 1 hr [2]: 1.35 µg/mL
- Measured Initial Conc. in Serum [3]: 9.74 µg/mL
- Conc. at t = 1 hr [3]: 1.18 µg/mL

SMILES: CSCC(=O)N[C@H]1Cc2ccc(F)c(C(=O)OCOC(=O)c3ccccc3)c2OB1O [Compound 43, benzoyloxymethyl(3R)-7-fluoro-2-hydroxy-3-[(2-methylsulfanylacetyl)amino]-3,4-dihydro-1,2-benzoxaborinine-8-carboxylate]
- Conc. at t = 3 hr [1]: 3.16 µg/mL
- Measured Initial Conc. in Serum [2]: 18.0 µg/mL
- Conc. at t = 1 hr [2]: 11.7 µg/mL
- Conc. at t = 3 hr [2]: 4.58 µg/mL
- Measured Initial Conc. in Serum [3]: 18.9 µg/mL
- Conc. at t = 1 hr [3]: 8.94 µg/mL

SMILES: CCC(=O)OCOC(=O)c1c(F)ccc2c1OB(O)[C@@H](NC(=O)CSC)C2 [Compound 16, (R)-propionyloxymethyl 7-fluoro-2-hydroxy-3-(2-(methylthio)acetamido)-3,4-dihydro-2H-benzo[e][1,2]oxaborinine-8-carboxylate]
- Conc. at t = 3 hr [1]: 0.27 µg/mL
- Measured Initial Conc. in Serum [2]: 20.2 µg/mL
- Conc. at t = 1 hr [2]: 0.40 µg/mL
- Conc. at t = 3 hr [2]: 0 µg/mL
- Measured Initial Conc. in Serum [3]: 20.7 µg/mL
- Conc. at t = 1 hr [3]: 2.29 µg/mL

SMILES: CSCC(=O)N[C@H]1Cc2ccc(SC)c(C(=O)OCOC(=O)C(C)C)c2OB1O [Compound 44, 2-methylpropanoyloxymethyl(3R)-2-hydroxy-7-methylsulfanyl-3-[(2-methylsulfanylacetyl)amino]-3,4-dihydro-1,2-benzoxaborinine-8-carboxylate]
- Conc. at t = 3 hr [1]: 12.5 µg/mL
- Measured Initial Conc. in Serum [2]: 18.4 µg/mL
- Conc. at t = 1 hr [2]: 16.0 µg/mL
- Conc. at t = 3 hr [2]: 5.21 µg/mL
- Measured Initial Conc. in Serum [3]: 18.6 µg/mL
- Conc. at t = 1 hr [3]: 18.1 µg/mL
